According to the NIST ThermoML archive (doi:10.1016/j.jct.2010.08.020):
Values joined by “and” are separate entries in the source; they are usually repeats but may differ in a detail not shown here. Equal entries are not always repeated. ± gives the expanded uncertainty stated by the source.

What was measured:
[1] = molar enthalpy of vaporization or sublimation; settings: 298.15 K; Crystal; drop (calvet) calorimetry
[2] = Crystal; for vapor or sublimation pressure: Calculated from knudsen effusion weight loss

Compound	molar enthalpy [1] [kcal/mol]	molar enthalpy of sublimation ([2]; 298.15 K, drop (calvet) calorimetry) [kcal/mol]	vapor or sublimation pressure ([2]; 299.19 K)	vapor or sublimation pressure ([2]; 301.19 K)	vapor or sublimation pressure ([2]; 303.2 K)	vapor or sublimation pressure ([2]; 305.11 K)	vapor or sublimation pressure ([2]; 307.18 K)	vapor or sublimation pressure ([2]; 309.11 K)	vapor or sublimation pressure ([2]; 311.13 K)	vapor or sublimation pressure ([2]; 313.19 K)	vapor or sublimation pressure ([2]; 315.21 K)	vapor or sublimation pressure ([2]; 317.12 K)
Oc1ccc(Br)cc1Br [2,4-dibromophenol]	19.4 ± 0.717	–	–	–	–	–	–	–	–	–	–	–
Oc1c(Br)cccc1Br [2,6-dibromophenol]	19.9 ± 0.717	–	–	–	–	–	–	–	–	–	–	–
Oc1cc(Br)cc(Br)c1 [3,5-dibromophenol]	–	22.5 ± 0.86	0.00012 ± 6e-06 kPa and 0.000118 ± 6e-06 kPa and 0.000117 ± 6e-06 kPa	0.000157 ± 8e-06 kPa and 0.000146 ± 7e-06 kPa and 0.000151 ± 8e-06 kPa	0.000196 ± 1e-05 kPa and 0.000184 ± 9e-06 kPa and 0.000189 ± 9e-06 kPa	0.000244 ± 1.2e-05 kPa and 0.000242 ± 1.2e-05 kPa and 0.000241 ± 1.2e-05 kPa	0.000325 ± 1.6e-05 kPa and 0.000315 ± 1.6e-05 kPa and 0.000317 ± 1.6e-05 kPa	0.000407 ± 2e-05 kPa and 0.000414 ± 2.1e-05 kPa and 0.000389 ± 1.9e-05 kPa	0.000502 ± 2.5e-05 kPa and 0.000501 ± 2.5e-05 kPa and 0.000493 ± 2.5e-05 kPa	0.000663 ± 3.3e-05 kPa and 0.000629 ± 3.2e-05 kPa and 0.00065 ± 3.3e-05 kPa	0.000813 ± 4.1e-05 kPa and 0.000838 ± 4.2e-05 kPa and 0.000801 ± 4e-05 kPa	0.001011 ± 0.0001 kPa and 0.001023 ± 0.0001 kPa and 0.000993 ± 5e-05 kPa
